Data as given in the supplement of paper PMC10981050.

Tests used:
Experiment in all cases: cell viability relative to vehicle control; higher = less cytotoxic
Conditions in all cases: SRSF2 genotype: SRSF2 WT
[1] = test system: MARIMO
Description: (§1)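 Isogenic SRSF2 WT and CRISPR SRSF2 P95 mutant clones of MOLM14, OCI-AML2 and MARIMO were exposed to ROCK inhibitors at 7 doses (0.037 to 29.9 µM) for 48 h. Viability was read by CellTiter-Glo luminescence and normalised to the vehicle control on each plate (%).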

[2] = test system: MOLM14
Description: as §1

[3] = test system: OCI-AML2
Description: as §1

O=C(NCc1cccc(O)c1)Nc1nc(-c2ccncc2)cs1 [RKI-1447]
cell viability [%]
Conditions | 0.037 µM | 0.129 µM | 0.369 µM | 0.997 µM | 3.49 µM | 9.97 µM | 29.9 µM
[1] | 102 | 101 | 101 | 98.4 | 94.49 | 75.9 | 20.3
[2] | 97 | 80.3 | 70.7 | 66.31 | 60.68 | 33 | 1.24
[3] | 98.1 | 73.5 | 44.7 | 34.5 | 27.9 | 22.8 | 4.32
